Measurements reported in ChEMBL document CHEMBL1136383, “New fibrinolytic agents: benzothiophene derivatives as inhibitors of the t-PA-PAI-1 complex formation” (Bioorg Med Chem Lett, 2003).

Target: Plasminogen activator inhibitor 1 (Homo sapiens, UniProt P05121)
Experiment: Inhibitory activity against plasminogen activator inhibitor 1 (PAI-1) was evaluated by inhibition of tissue plasminogen activator/PAI-1 complex formation in t-PA-induced fibrin clot lysis assay

Chain of Plasminogen activator inhibitor 1 (P05121 whole entry): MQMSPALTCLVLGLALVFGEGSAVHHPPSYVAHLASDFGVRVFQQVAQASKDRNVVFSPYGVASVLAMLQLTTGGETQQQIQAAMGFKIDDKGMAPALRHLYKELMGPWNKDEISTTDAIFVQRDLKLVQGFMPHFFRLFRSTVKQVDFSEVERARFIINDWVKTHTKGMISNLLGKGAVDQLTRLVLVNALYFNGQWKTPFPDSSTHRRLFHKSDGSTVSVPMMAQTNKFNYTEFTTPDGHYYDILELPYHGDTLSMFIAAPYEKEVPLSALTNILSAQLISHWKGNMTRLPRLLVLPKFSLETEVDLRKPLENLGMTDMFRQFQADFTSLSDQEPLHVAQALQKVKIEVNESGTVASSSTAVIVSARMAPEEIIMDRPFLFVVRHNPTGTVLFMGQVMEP

Going from `O=C(O)/C(=C/c1sc2cc(OCc3ccc(S(=O)(=O)c4ccccc4)cc3)c(OCc3ccc(S(=O)(=O)c4ccccc4)cc3)cc2c1Oc1ccc(Cl)cc1)c1ccncc1` to `O=C(O)/C(=C/c1sc2cc(OCc3ccc(Sc4ccccc4)cc3)c(OCc3ccc(Sc4ccccc4)cc3)cc2c1Oc1ccc(Cl)cc1)c1ccncc1`, the IC50 falls from 0.77 µM to 0.039 µM (20-fold).

Going from `O=C(O)/C(=C/c1sc2cc(OCc3ccccc3-c3ccccc3)c(OCc3ccccc3-c3ccccc3)cc2c1Oc1ccc(Cl)cc1)c1ccncc1` to `O=C(O)/C(=C/c1sc2cc(OCc3cccc(-c4ccccc4)c3)c(OCc3cccc(-c4ccccc4)c3)cc2c1Oc1ccc(Cl)cc1)c1ccncc1`, the IC50 falls from 10.8 µM to 0.22 µM (49-fold).

First: COc1ccc(-c2ccc(COc3cc4sc(/C=C(/C(=O)O)c5ccncc5)c(Oc5ccc(Cl)cc5)c4cc3OCc3ccc(-c4ccc(OC)cc4)cc3)cc2)cc1
Second: O=C(O)/C(=C/c1sc2cc(OCc3ccc(-c4ccccc4)cc3)c(OCc3ccc(-c4ccccc4)cc3)cc2c1Oc1ccc(Oc2ccncc2)cc1)c1ccncc1
The IC50 of the first is 76-fold lower: 0.14 µM for the first, 10.7 µM for the second. The first is the more potent here.

Going from `Cc1cc(Oc2c(/C=C(/C(=O)O)c3ccncc3)sc3cc(OCc4ccc(-c5ccccc5)cc4)c(OCc4ccc(-c5ccccc5)cc4)cc23)cc(C)c1Cl` to `Cc1cc(Oc2c(/C=C(/C(=O)O)c3ccncc3)sc3cc(OCc4ccc(-c5ccccc5)cc4)c(OCc4ccc(-c5ccccc5)cc4)cc23)ccc1Cl`, the IC50 falls from 1.09 µM to 0.48 µM (2.3-fold).

Compared with `O=C(O)/C(=C/c1sc2cc(OCc3ccc(-c4ccccc4)cc3)c(OCc3ccc(-c4ccccc4)cc3)cc2c1Oc1ccccc1)c1ccncc1`, `O=C(O)/C(=C/c1sc2cc(OCc3ccc(-c4ccccc4)cc3)c(OCc3ccc(-c4ccccc4)cc3)cc2c1Oc1cccnc1)c1ccncc1` is 24-fold higher in IC50: 0.1 µM for the first, 2.4 µM for the second.

First: O=C(O)/C(=C/c1sc2cc(OCc3ccc(Cc4ccccc4)cc3)c(OCc3ccc(Cc4ccccc4)cc3)cc2c1Oc1ccc(Cl)cc1)c1ccncc1
Second: O=C(O)/C(=C/c1sc2cc(OCc3ccc(Oc4ccccc4)cc3)c(OCc3ccc(Oc4ccccc4)cc3)cc2c1Oc1ccc(Cl)cc1)c1ccncc1
The IC50 of the first is 2.7-fold higher: 0.27 µM for the first, 0.1 µM for the second. The second is the more potent here.

Going from `CN(C)CCSc1ccc(/C=c2\[nH]c(=O)/c(=C/c3ccccc3)[nH]c2=O)s1` to `CN(C)CCSc1ccc(/C=c2\[nH]c(=O)/c(=C/c3ccccc3)[nH]c2=O)cc1`, the IC50 falls from 106 µM to 51 µM (2.1-fold).

Compared with `O=C(O)/C(=C/c1sc2cc(OCc3ccc(-c4ccccc4)cc3)c(OCc3ccc(-c4ccccc4)cc3)cc2c1Oc1ccc2ncccc2c1)c1ccncc1`, `O=C(O)/C(=C/c1sc2cc(OCc3ccc(-c4ccccc4)cc3)c(OCc3ccc(-c4ccccc4)cc3)cc2c1Oc1cccc(F)c1)c1ccncc1` is 25-fold lower in IC50: 6.06 µM for the first, 0.24 µM for the second. The second is the more potent here.

First: O=C(O)/C(=C/c1sc2cc(OCc3ccc(-c4ccccc4)cc3)c(OCc3ccc(-c4ccccc4)cc3)cc2c1Oc1ccc(F)c(F)c1)c1ccncc1
Second: O=C(O)/C(=C/c1sc2cc(OCc3ccc(-c4ccccc4)cc3)c(OCc3ccc(-c4ccccc4)cc3)cc2c1Oc1ccc(Cl)c(F)c1)c1ccncc1
The IC50 of the first is 3.9-fold lower: 0.59 µM for the first, 2.28 µM for the second.

`Cc1ccc(Oc2c(/C=C(/C(=O)O)c3ccncc3)sc3cc(OCc4ccc(-c5ccccc5)cc4)c(OCc4ccc(-c5ccccc5)cc4)cc23)cn1` and `O=C(O)/C(=C/c1sc2cc(OCc3ccc(-c4ccccc4)cc3)c(OCc3ccc(-c4ccccc4)cc3)cc2c1Oc1ccc(Cl)nc1)c1ccncc1` are within 1.5-fold of each other in IC50: 2.48 µM for the first, 2.07 µM for the second.

Going from `O=C(O)/C(=C/c1sc2cc(OCc3ccc(-c4ccccc4)cc3)c(OCc3ccc(-c4ccccc4)cc3)cc2c1Oc1ccc(-n2ccnc2)cc1)c1ccncc1` to `COC(=O)/C(=C/c1sc2cc(OCc3ccccc3)c(OCc3ccccc3)cc2c1Oc1ccc(Cl)cc1)c1ccncc1`, the IC50 falls from 2.91 µM to 0.47 µM (6.2-fold).

`COc1ccc(/C=c2\[nH]c(=O)/c(=C/c3ccccc3)[nH]c2=O)cc1` gave an IC50 of 59.4 µM.
